One assay relates to CAL-27 cell line. The assay is described as follows: Migration scratch assay. The assay is classed as cell-based. To be noted: CAL-27, 16 h and 24 h. Here is the method: Referring to FIG. 60, PRMT5 and squamous cell carcinoma migration in response to HLCL-66 is illustrated. Migration was performed as previously described (Nowicki, M. O., et al. (2008) Neuro. Oncol. 10, 690-699). Briefly, a migration scratch assay was performed with CAL-27 cell line treated with HLCL-66 for 0, 16, and 24 hours.

The test system of the next assay is multiple cell lines. The assay is described as follows: Proliferation of multiple cell lines (FIG. 59). The assay is classed as cell-based. The note with it: FIG. 59A-E. Here is the method: Proliferation of multiple cell lines was evaluated for CMPD 5, CMPD 7, HLCL61, HLCL-65, and HLCL-66 (FIG. 59A-E).
Assay [1] addresses T1, recombinant human PRMT5/MEP50 enzyme (Homo sapiens, UniProt O14744).
T1 construct: purchased BPS Bioscience
The assay is described as follows: Epigenase PRMT methyltransferase (type II-specific) activity/inhibition assay kit. The assay is classed as biochemical. To be noted: 25 ng recombinant human PRMT5/MEP50 per reaction; read-out: Inhibition of PRMT5 mediated H4R3 methylation (IC50). As to the method: The inhibition of PRMT5 mediated H4R3 methylation result was obtained with Epigenase™ PRMT methyltransferase (type II-specific) activity/inhibition assay kit. 25 ng recombinant human PRMT5/MEP50 enzyme (purchased from BPS Bioscience) was used in each reaction.

The subject of assay [2] is Mantle cell lymphoma cell line Jeko. Briefly: MTS anti-proliferation assay. The class given is cell-based. Here is the method:
MTS proliferation assays were performed according the CellTiter 96™ Aqueous Cell Proliferation Assay Technical Bulletin (Promega, Madison, Wis.). 5×10^5 cells were plated in each well of a 96-well plate at 37° C. and assayed for proliferation at 24, 48, and 72 hr. Proliferation signal at 50% of control was used as IC50 for growth.
(§1) Following the synthesis of 14 compounds, the anti-proliferation and pro-apoptotic activities of those compounds was evaluated in Mantle cell lymphoma cell line Jeko. Replicate cultures of Jeko were incubated in DMSO and the compounds for 24, 48 and 72 hours. FITC-Annexin V-PI stained flow cytometry was used to detect the apoptotic population of cells (Table 4).
On the technique in general: Tetrazolium assays rely on reduction of a dye to a coloured formazan, in cell work by metabolically active cells.

The test system is the same in assay [3]. Briefly: Induction of apoptosis, FITC-Annexin V-PI flow cytometry. The class given is cell-based. As to the method:
Analysis by flow cytometry. Cell viability was also measured by flow cytometry at 24 and 48 hr using annexin-V-FITC and propidium iodide (PI) according to the manufacturer's instructions (BD Biosciences).
as §1
Background: In flow cytometry, cells or beads pass a laser one at a time.

The next assay has as its system OG2 cells. The assay is described as follows: Viability/apoptosis assay alone and in combination with temozolomide. The assay is classed as cell-based. To be noted: in combination with TMZ, FIG. 13. The text has this:
OG2 cells are tumor cells derived from glioblastoma primary tumors.

T1 sequence (O14744 2-637 limits assumed): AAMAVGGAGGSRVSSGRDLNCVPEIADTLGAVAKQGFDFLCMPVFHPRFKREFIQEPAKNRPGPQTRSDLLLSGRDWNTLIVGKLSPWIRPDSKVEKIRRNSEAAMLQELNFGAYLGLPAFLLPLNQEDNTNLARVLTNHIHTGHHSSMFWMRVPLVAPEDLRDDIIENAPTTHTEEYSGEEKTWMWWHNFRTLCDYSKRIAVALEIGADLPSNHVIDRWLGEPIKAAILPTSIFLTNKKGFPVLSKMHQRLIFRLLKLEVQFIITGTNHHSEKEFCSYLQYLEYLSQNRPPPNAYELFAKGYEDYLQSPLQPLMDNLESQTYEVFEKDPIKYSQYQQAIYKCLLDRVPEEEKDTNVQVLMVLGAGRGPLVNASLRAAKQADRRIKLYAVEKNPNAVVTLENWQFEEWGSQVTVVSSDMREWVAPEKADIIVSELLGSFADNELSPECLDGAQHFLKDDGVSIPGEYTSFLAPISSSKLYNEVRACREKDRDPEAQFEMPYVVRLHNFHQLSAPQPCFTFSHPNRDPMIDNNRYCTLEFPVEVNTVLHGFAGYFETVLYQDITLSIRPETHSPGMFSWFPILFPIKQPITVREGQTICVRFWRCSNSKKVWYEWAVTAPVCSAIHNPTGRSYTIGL
T1 sequence (Q9BQA1 2-342 partner limits assumed): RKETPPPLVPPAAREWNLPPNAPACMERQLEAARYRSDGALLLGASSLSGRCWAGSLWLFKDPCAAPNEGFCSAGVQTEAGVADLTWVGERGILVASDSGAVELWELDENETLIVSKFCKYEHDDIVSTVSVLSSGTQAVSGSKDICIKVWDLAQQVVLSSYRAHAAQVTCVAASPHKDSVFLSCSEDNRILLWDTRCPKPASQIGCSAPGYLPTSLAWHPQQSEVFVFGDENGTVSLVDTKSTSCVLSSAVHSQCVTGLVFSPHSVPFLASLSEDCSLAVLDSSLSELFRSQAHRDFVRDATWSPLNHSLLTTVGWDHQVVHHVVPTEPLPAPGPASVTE

As for `CCn1c2ccccc2c2cc(/C=C/C(=O)c3ccccc3OC)ccc21` [HLCL-66], the “gap closure (migration)” value in the assay on CAL-27 cell line is listed as “affected in a dose-response fashion”. Further, in the assay on multiple cell lines, the “potency, proliferation of multiple cell lines” value is listed as “low micromolar range”. Also, the IC50 in assay [1] stood at 26000 nM; in assay [2] (24 h incubation), 1900 nM; in assay [2] (48 h incubation), 400 nM; in assay [2] (72 h incubation), 200 nM. Moreover, the EC50 in assay [3] (24 h) was found to be 1400 nM; in assay [3] (48 h), 500 nM. Besides, in the assay on OG2 cells, the “induction of apoptosis in combination” value is listed as “synergistic”.

A word on the IC50: it is the point on the concentration scale where inhibition reaches its midpoint. By EC50 is commonly meant the concentration that produces a half-maximal response.

For the origin of these results see patent publication US9856218B2, “Inhibitors of PRMT5 and methods of their use” (Ohio State Innovation Foundation, priority 2013, dated 2018).
